Measured values taken from patent US20260137687A1, “GTPase INHIBITORS AND USES THEREOF” (The Regents of The University of California, priority 2022, published 2026).

Tests used:
[1] = permeability controls; cited from earlier work
[2] = target: T1, K-Ras(G12R)·GDP (Homo sapiens, UniProt P01116, G12R); test: Intact protein mass spectrometry, covalent modification; assay type: binding; conditions: 100 μM compound, pH 7.5, 23° C.; adducts +656 Da and +638 Da
T1 construct: human K-Ras (G12R, aa 1-169); 6xHis tag + TEV cleavage site (N, cleaved yes); made in house; host or cells: E. coli BL21(DE3)
Description: Purified K-Ras variants (4 μM final) were incubated with compounds at 50 or 100 μM (1% v/v DMSO final) in 20 mM HEPES pH 7.5, 150 mM NaCl, 1 mM MgCl2 in a total volume of 150 μL. After the noted time, the samples were analyzed by intact protein LC/MS using a Waters Xevo G2-XS system equipped with an Acquity UPLC BEH C4 1.7 μm column. The mobile phase was a linear gradient of 5-95% acetonitrile/water+0.05% formic acid. The spectra were processed using QuantLynx, giving the ion counts observed for the most abundant species. For assays conducted under an alternate pH, the HEPES buffer was replaced with one of the following buffers (maintaining 150 mM NaCl and 1 mM MgCl2): 20 mM MES pH 6 or 20 mM Tris pH 9.

[3] = tested on: BaF3/G12R cells (±IL-3), TCC-Pan-2 cells, and A375 cells; test: Cellular activity (phospho-ERK immunoblot, growth inhibition); assay type: cell-based; conditions: at concentrations below 100 μM
Description: When indicated, cells were treated with drugs at 40-60% confluency at a final DMSO concentration of 1%. At the end of treatment period, cells were placed on ice. Unless otherwise indicated, adherent cells were washed once with ice-cold PBS (1 mL), scraped with a spatula, and pelleted by centrifugation (500×g, 5 min). Suspension cells were pelleted by centrifugation (500×g, 5 min), washed with 1 mL ice-cold PBS, and pelleted again. Cells were lysed in RIPA buffer supplemented with protease and phosphatase inhibitors (cOmplete and phosSTOP, Roche) on ice for 10 min. Lysates were clarified by high-speed centrifugation (19,000×g, 10 min). Concentrations of lysates were determined with protein BCA assay (Thermo Fisher) and adjusted to 2 mg/mL with additional RIPA buffer (or Co-IP Lysis Buffer). Samples were mixed with 5×SDS Loading Dye and heated at 95° C. for 5 min.
Cells were seeded into 96-well white flat bottom plates (1,000 cells/well) (Corning) and incubated overnight. Cells were treated with the indicated compounds in a nine-point threefold dilution series (100 μL final volume) and incubated for 72 h. Cell viability was assessed using a commercial CellTiter-Glo (CTG) luminescence-based assay (Promega). […] Plates were placed on an orbital shaker for 30 min before recording luminescence using a Spark 20M (Tecan) plate reader.

[4] = target: T2, K-Ras(G12R) Cyslight bound by GDP (Homo sapiens, UniProt P01116, C118S/C51S/C80L/G12R); test: LC-MS analysis of adduct formation for crystallization; assay type: binding; conditions: 100 μM protein, 200 μM compound, 23° C.
T2 construct: human K-Ras G12R Cyslight (G12R/C51S/C80L/C118S, aa 1-169); 6xHis tag + TEV cleavage site (N, cleaved yes); made in house; host or cells: E. coli BL21(DE3)
Description: K-Ras(G12R) Cyslight ([…]/C51S/C80L/C118S) bound by GDP purified by size exclusion chromatography was diluted to 100 μM in Reaction Buffer (20 mM HEPES 7.5, 150 mM NaCl, 1 mM MgCl2). […] The reaction mixture was purified by size exclusion chromatography (Superdex75, 20 mM HEPES 7.5, 150 mM NaCl, 1 mM MgCl2) and concentrated to 20 mg/mL. For crystallization, 0.1 μL of the protein was mixed with 0.1 μL well buffer containing 0.1 M MES pH 6.5, 30% w/v PEG 4K. Crystals were grown at 20° C. in a 96-well plate using the hanging-drop vapor diffusion method. Maximal crystal growth was achieved after 7 days. The crystals were transferred to a cryoprotectant solution (0.1 M MES pH 6.5, 30% w/v PEG 4K, 15% glycerol) and flash-frozen in liquid nitrogen.

Q: With O=C(N[C@H](CO)[C@H](O)c1ccc([N+](=O)[O-])cc1)C(Cl)Cl [Chloramphenicol] as the compound, how does the “permeability class of PAMPA control” value [1] read?
A: high

Q: Which “permeability class of PAMPA control” value [1] does the source give for O=C(O)Cc1ccccc1Nc1c(Cl)cccc1Cl [Diclofenac] here?
A: medium

Q: With CC(=O)CC(=O)N1[C@@H]2CC[C@H]1CN(c1nc(OCC34CCCN3CCC4)nc3c(F)c(-c4cccc5cccc(Cl)c45)ncc13)C2 [compound 2, 1-((1R,5S)-3-(7-(8-chloronaphthalen-1-yl)-8-fluoro-2-((tetrahydro-1H-pyrrolizin-7a(5H)-yl)methoxy)pyrido[4,3-d]pyrimidin-4-yl)-3,8-diazabicyclo[3.2.1]octan-8-yl)butane-1,3-dione] as the compound, how does the “covalent adduct formation with recombinant K-Ras(G12R)·GDP” value [2] read?
A: did not form any detectable covalent adduct

Q: What does the source list for CC(=O)C(O)(O)C(=O)N1CCN(c2nc(OCC34CCCN3CCC4)nc3c(F)c(-c4cccc5cccc(Cl)c45)ncc23)C[C@@H]1CC#N [compound 4, (S)-2-(4-(7-(8-chloronaphthalen-1-yl)-8-fluoro-2-((tetrahydro-1H-pyrrolizin-7a(5H)-yl)methoxy)pyrido[4,3-d]pyrimidin-4-yl)-1-(2,2-dihydroxy-3-oxobutanoyl)piperazin-2-yl)acetonitrile]?
A: cellular activity [3]: did not show cellular activity; conversion of K-Ras(G12R) Cyslight·GDP to covalent adduct [4]: full conversion to a single covalent adduct
